Our source for the EC50, IC50 and AC50 values is ChEMBL document CHEMBL1201862, “PubChem BioAssay data set” (2004).

Calls of active or inactive are those of the source. A value given as a limit tells only on which side of the number the result lay.

Assay [1] deals with T1, Insulin-degrading enzyme (Homo sapiens, UniProt P14735).
T1 sequence (P14735 whole entry): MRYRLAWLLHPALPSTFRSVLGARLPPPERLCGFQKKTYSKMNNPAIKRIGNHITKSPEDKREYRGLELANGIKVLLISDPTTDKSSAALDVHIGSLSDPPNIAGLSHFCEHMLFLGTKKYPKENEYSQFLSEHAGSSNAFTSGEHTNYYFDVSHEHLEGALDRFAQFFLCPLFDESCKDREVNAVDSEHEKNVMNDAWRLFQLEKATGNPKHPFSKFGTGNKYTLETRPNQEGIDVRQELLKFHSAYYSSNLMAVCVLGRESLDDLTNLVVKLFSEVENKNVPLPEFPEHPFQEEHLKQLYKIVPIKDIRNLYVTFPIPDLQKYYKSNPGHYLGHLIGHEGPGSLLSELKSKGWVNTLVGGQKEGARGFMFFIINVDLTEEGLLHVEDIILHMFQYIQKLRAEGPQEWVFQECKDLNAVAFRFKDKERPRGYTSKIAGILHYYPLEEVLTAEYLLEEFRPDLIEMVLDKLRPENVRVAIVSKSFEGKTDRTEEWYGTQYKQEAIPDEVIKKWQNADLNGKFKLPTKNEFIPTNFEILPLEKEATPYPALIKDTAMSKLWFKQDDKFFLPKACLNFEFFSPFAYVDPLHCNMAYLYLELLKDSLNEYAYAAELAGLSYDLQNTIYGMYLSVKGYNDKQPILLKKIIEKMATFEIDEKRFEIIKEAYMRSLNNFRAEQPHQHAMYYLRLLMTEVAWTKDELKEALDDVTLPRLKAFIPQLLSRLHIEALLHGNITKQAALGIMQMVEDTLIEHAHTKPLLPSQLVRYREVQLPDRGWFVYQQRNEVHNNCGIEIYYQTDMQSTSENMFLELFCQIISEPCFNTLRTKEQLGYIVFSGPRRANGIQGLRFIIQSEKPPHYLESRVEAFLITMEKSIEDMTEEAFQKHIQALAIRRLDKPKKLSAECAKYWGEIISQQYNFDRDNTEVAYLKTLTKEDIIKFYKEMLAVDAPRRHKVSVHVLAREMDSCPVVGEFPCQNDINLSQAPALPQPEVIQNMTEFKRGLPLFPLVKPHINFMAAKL
The experiment in a line: cellular IDE activation of Abeta substrate cleavage – fluorescence polarization, HEK cells, dose response (AID 588439). In kind it is functional, cell-based.

For assay [2], the system named is HEK293. The experiment in a line: membrane integrity loss in HEK cells – cell-based, fluorescence, cytotoxicity control for IDE activator project, dose response (AID 588440).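 Further: cytotoxicity by LDH release measuring loss of membrane integrity.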 In kind it is functional. The conditions noted are these: Homo sapiens.
The test system of assay [3] is HEK293. Briefly: optical interference in Abeta FP readout, dose response, artefact control for IDE activator project, biochemical, fluorescence polarization (AID 588442). In kind it is functional, cell-based. As to conditions: Homo sapiens. In general terms: Polarisation of emitted light reports the rotation of a fluorescent probe.
The target in assay [4] is T1, Insulin-degrading enzyme. The experiment in a line: recombinant IDE activation, cell-free – biochemical, fluorescence polarization, counter-screen for IDE activator project, dose response (AID 588681).
Assay [5] can be described thus: loss of viability in HepG2 cells – cell-based, CellTiter-Glo, cherry-picked, cytotoxicity control for Shn3 inhibitor project, dose response (AID 624134). In kind it is functional.
Assay [6] has as its system Streptococcus. The experiment in a line: GAS UMAA2166 growth inhibition – luminescence, BacTiterGlo, counter-screen for streptokinase expression inhibitor project, dose response (AID 1915).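 Further: potency for reduction of bacterial viability or growth.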 In kind it is functional, organism-based. In general terms: A counterscreen serves to expose hits that act by an unwanted route or on another target.
In assay [7] the test system is Streptococcus sp. 'group A'. Briefly: Streptococcus pyogenes SK(-)GAS viability under kanamycin – luminescence, BacTiterGlo, confirmation, counter-screen for streptokinase expression inhibitor project, dose response (AID 1900). In kind it is functional, organism-based.
In assay [8] the target is Beta-galactosidase (Escherichia coli, UniProt Q8VNN2). Briefly: PubChem AID 485352. In kind it is functional.
Chain of Beta-galactosidase (Q8VNN2 whole entry): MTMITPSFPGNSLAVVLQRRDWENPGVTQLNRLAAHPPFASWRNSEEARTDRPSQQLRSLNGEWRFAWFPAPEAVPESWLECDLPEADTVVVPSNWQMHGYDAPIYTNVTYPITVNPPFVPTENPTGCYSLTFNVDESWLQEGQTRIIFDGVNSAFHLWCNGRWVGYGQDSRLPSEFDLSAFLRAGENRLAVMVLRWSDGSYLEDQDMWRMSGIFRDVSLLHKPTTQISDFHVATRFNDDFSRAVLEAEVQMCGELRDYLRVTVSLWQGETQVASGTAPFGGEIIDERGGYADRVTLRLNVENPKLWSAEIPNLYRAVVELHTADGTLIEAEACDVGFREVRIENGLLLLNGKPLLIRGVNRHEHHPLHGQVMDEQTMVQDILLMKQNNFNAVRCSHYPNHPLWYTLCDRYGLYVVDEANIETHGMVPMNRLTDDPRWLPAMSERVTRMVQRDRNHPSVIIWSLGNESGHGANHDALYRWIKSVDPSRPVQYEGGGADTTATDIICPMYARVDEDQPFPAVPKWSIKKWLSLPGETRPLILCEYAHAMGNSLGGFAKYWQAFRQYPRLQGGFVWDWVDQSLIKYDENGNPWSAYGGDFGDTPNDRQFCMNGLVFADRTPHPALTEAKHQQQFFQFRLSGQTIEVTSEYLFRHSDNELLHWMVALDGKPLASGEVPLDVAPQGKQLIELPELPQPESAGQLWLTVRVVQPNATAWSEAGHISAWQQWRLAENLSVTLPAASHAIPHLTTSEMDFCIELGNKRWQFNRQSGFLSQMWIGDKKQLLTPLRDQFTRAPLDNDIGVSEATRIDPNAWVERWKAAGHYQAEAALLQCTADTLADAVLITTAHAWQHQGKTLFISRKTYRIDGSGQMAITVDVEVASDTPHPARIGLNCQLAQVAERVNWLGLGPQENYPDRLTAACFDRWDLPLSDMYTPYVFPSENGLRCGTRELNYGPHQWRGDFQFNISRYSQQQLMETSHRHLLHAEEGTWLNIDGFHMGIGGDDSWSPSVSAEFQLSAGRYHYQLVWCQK
Assay [9] is described as follows: luciferase reporter signal suppression in cells – H4 neuroglioma cells, luminescence, dose response (AID 1990). In kind it is functional, cell-based. Background: A reporter such as luciferase makes a cellular process visible.
Assay [10] deals with T2, Streptokinase A (Streptococcus pyogenes serotype M1, UniProt P10520).
T2 sequence (P10520 whole entry): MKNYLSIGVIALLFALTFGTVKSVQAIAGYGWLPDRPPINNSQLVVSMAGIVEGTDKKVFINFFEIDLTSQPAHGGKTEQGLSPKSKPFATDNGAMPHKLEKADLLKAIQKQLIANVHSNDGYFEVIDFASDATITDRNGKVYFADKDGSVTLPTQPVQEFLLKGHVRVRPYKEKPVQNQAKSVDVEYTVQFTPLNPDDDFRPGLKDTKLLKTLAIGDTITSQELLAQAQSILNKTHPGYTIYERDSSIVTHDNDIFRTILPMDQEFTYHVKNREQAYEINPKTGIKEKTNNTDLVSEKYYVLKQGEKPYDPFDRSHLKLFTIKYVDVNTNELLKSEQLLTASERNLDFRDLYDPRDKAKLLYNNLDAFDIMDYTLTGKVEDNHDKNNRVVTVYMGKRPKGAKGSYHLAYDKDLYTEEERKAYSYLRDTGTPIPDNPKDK
The experiment in a line: viability-normalized secreted streptokinase activity reduction – plasminogen activation absorbance, OD405, dose response (AID 1914).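 Further: secreted streptokinase activity via plasminogen activation per viability signal from cell pellet.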 In kind it is functional, Streptococcus pyogenes M1 GAS.

Assay [11] addresses T3, Type-1 angiotensin II receptor (Homo sapiens, UniProt P30556).
T3 sequence (P30556 whole entry): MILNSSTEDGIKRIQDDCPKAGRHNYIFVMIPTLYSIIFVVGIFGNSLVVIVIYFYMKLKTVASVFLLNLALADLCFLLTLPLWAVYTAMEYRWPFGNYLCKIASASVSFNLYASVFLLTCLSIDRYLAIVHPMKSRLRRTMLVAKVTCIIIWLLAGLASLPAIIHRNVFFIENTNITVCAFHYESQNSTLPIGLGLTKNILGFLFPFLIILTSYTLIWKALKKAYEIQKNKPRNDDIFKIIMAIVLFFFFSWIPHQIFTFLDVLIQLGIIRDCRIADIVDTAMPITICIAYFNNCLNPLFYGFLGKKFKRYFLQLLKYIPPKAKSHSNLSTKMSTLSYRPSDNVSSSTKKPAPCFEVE
The experiment in a line: antagonism of angiotensin II type 1 receptor – cell-based, uHTS hits, selectivity assay for APJ receptor antagonist project, dose response (AID 463214).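 Further: antagonist potency against angiotensin II stimulated AT1 response.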 In kind it is functional.

Assay [12] is described as follows: non-specific 3'UTR reporter inhibition in Clone20-Shn3RL – cell-based, Renilla luciferase, cherry-picked, counter-screen for Shn3 inhibitor project, dose response (AID 624133). In kind it is functional.
A short description of assay [13]: alpha-synuclein stem-loop luciferase translation blockers – H4 neuroglioma cells, luminescence, confirmation (AID 1988). In kind it is functional, cell-based.
Assay [14] is described as follows: Luminescence Cell-Based Dose Response HTS to Identify Inhibitors of 5'UTR Stem-Loop Driven Prion Protein mRNA Translation in H4 Neuroglioblastoma Cells. [Related pubchem assays: 1827 (Project Summary), 1813 (Primary HTS)]. In kind it is functional.
Assay [15] can be described thus: reduction of Shn3 3'UTR-driven luciferase in osteoblasts – cell-based, Clone20 osteoblasts, firefly luciferase, cherry-picked, dose response (AID 624132).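 Further: firefly luciferase luminescence from reporter carrying the Shn3 3'UTR in osteoblasts.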 In kind it is functional.
For assay [16], the target named is Ras and Rab interactor 1/Tyrosine-protein kinase ABL1 (Homo sapiens, UniProt P00519+Q13671). In kind it is functional.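 Further: biochemical TR-FRET dose-response test measuring inhibition of binding between Rin1 and Abl proteins.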
Chain of Ras and Rab interactor 1/Tyrosine-protein kinase ABL1 (P00519 whole entry): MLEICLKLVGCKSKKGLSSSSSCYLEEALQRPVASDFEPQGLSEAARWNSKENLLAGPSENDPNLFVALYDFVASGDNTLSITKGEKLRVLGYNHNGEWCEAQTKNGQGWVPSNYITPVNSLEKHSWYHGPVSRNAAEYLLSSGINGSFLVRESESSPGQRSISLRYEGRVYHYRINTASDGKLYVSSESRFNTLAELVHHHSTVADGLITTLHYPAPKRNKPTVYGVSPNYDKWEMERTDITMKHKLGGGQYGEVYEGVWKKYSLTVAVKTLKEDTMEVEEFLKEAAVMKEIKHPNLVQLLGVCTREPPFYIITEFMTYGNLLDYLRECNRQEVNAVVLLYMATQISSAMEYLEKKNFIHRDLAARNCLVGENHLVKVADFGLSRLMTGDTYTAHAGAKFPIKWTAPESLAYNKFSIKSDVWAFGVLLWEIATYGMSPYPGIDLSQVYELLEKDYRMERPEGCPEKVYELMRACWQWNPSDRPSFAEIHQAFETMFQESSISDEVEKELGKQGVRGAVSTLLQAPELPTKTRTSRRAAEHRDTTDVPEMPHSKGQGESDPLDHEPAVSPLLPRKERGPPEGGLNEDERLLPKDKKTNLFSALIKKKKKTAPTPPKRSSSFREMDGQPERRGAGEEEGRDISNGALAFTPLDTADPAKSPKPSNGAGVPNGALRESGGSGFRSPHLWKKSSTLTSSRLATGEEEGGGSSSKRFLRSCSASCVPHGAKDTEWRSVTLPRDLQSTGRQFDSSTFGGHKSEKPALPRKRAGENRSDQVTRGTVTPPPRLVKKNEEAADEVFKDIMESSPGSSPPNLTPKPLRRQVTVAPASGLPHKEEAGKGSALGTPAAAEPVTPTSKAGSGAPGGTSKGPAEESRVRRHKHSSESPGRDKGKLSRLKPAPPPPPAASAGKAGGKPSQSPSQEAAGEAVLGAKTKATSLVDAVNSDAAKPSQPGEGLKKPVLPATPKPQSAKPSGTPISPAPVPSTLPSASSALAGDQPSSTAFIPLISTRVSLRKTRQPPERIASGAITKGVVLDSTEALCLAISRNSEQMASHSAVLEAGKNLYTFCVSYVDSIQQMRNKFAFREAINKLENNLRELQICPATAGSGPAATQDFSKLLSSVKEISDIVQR
Chain of Ras and Rab interactor 1/Tyrosine-protein kinase ABL1 (Q13671 whole entry): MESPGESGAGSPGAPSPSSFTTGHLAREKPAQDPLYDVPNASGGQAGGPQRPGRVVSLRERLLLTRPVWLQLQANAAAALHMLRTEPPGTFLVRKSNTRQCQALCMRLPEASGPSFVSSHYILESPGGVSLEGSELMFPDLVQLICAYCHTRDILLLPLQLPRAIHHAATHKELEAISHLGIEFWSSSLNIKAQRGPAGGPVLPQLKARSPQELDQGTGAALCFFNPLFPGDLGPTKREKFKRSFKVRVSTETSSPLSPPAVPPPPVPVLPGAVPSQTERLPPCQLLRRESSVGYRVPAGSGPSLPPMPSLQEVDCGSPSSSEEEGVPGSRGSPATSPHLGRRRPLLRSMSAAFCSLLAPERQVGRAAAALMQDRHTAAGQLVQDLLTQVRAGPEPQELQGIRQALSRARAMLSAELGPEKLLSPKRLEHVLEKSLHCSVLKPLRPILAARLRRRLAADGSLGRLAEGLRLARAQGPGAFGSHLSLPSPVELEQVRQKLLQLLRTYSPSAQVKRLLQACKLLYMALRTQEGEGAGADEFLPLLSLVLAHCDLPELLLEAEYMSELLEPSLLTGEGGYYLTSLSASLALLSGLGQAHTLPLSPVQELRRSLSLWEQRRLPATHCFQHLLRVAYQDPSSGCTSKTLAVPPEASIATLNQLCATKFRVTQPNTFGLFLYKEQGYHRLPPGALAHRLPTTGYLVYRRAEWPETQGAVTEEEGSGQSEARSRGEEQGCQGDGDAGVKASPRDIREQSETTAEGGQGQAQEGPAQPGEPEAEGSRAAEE
Assay [17] can be described thus: blockers of bursicon-stimulated LGR2 cAMP reporter – cell-based, HEK293, CRE-luciferase reporter, cherry pick, set 2, dose response (AID 743343).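 Further: transfected cells were stimulated with diluted bursicon conditioned medium after compound addition.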 In kind it is functional.
Assay [18] can be described thus: A549 cell cytotoxicity, dose response, cytotoxicity control, plate reader, cherry-pick, antagonist series (AID 743412). In kind it is functional, cell-based.
The nature of assay [19]: toxicity toward HepG2 liver cells – cell-based, plate reader, cherry-pick, antagonist series, cytotoxicity control, dose response (AID 743416). In kind it is functional.
Assay [20] is described as follows: blockade of melanocortin 4 receptor signaling – cell-based, plate reader, cherry pick, counter-screen for LGR2 antagonist project, dose response (AID 743444).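 Further: transfected HEK 293 cells stimulated with alpha-MSH peptide; potency of inhibitors of the alpha-MSH evoked signal.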 In kind it is functional.
Assay [21] can be described thus: cAMP pathway inhibition in counterscreen cell line – TR-FRET cAMP detection, counter-screen for MC4R biased antagonist project, dose response (AID 602305).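 Further: U2OS cells stimulated with forskolin near its EC80 as the cAMP inducer; potency is for inhibition of forskolin-stimulated cAMP signaling.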 In kind it is functional, cell-based.
Assay [22] has as its target Melanocortin receptor 4 (Homo sapiens, UniProt P32245). Briefly: inhibitors of MC4R cAMP signaling – cell-based, TR-FRET, biased antagonists, dose response (AID 602298).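 Further: antagonist potency against agonist-stimulated cAMP production.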 In kind it is functional.
Assay [23] can be described thus: viability loss in HEK293 cells – cell-based, plate reader, cherry-picked samples, cytotoxicity control, dose response (AID 743446). In kind it is functional.
In assay [24] the target is Mitochondrial peptide methionine sulfoxide reductase (Bos taurus, UniProt P54149). In kind it is functional.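 Further: absorbance read-out, biochemical high-throughput dose-response screen for MsrA inhibitors, confirmatory; recombinant bovine MsrA coupled to E. coli TrxB with NADPH and selenocystamine; potency is for inhibitors of MsrA activity on DMSO substrate.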
Chain of Mitochondrial peptide methionine sulfoxide reductase (P54149 whole entry): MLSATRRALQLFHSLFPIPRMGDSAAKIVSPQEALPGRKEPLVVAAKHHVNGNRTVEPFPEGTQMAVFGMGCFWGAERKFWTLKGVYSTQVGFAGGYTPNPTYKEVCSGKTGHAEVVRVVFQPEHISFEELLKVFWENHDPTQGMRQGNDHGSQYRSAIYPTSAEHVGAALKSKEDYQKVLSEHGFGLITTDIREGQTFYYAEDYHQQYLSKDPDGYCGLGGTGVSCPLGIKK
The target in assay [25] is T4, Heat shock factor protein 1 (Mus musculus, UniProt P38532).
T4 sequence (P38532 whole entry): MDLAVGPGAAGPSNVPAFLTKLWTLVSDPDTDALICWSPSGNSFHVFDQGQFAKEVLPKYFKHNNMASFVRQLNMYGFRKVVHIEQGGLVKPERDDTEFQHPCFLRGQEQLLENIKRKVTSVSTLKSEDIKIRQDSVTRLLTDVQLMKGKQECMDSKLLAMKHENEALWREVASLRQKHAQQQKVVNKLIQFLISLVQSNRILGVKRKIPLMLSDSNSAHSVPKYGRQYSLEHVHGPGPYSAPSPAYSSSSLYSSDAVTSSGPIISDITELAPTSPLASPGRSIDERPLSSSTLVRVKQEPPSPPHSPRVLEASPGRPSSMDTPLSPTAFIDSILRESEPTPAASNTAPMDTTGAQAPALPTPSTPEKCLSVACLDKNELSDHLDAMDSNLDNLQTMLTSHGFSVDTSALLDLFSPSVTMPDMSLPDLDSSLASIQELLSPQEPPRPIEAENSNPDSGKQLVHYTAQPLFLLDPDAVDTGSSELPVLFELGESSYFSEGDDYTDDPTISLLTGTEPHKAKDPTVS
The experiment in a line: enhancement of HSF1-driven luciferase signal – cell-based, NIH3T3, luminescence, dose retest, confirmation (AID 435004).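 Further: stress induced by proteasome inhibitor MG132 added 30 min after compound; luciferase reporter driven by HSF1 response element in NIH3T3 cells; actives raise luminescence as potentiators of the MG132 stress response.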 In kind it is functional.

Assay [26] deals with T5, Calpain-2 catalytic subunit (Sus scrofa, UniProt P43367).
T5 sequence (P43367 whole entry): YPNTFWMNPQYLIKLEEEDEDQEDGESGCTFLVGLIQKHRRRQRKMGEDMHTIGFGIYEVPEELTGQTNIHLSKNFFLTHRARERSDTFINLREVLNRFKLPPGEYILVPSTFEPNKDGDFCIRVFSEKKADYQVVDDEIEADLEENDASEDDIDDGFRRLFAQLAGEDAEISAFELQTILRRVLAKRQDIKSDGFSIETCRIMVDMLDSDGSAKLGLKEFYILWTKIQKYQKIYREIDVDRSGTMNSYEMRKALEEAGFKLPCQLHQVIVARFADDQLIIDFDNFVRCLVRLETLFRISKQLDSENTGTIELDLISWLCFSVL
The experiment in a line: m-calpain protease blockers, concentration series – biochemical, fluorogenic peptide substrate, dose response (AID 1420). In kind it is functional.

Chain of Melanocortin receptor 4 (P32245 whole entry): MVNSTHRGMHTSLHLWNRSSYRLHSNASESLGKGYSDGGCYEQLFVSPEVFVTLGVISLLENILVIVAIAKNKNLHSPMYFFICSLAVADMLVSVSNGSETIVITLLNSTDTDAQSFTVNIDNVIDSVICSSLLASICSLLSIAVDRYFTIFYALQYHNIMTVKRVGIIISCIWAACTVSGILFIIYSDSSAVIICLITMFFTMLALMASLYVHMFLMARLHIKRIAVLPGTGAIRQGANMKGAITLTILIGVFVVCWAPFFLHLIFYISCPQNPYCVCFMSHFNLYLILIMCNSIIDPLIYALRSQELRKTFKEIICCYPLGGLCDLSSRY

For `O=C(Nc1cc(S(=O)(=O)N2CCOCC2)ccc1N1CCOCC1)c1ccccc1F`, the EC50 in [1], in assay [3] and in assay [4] was > 54.7 µM (inactive) in each case. Further, the IC50 in [2] is > 89.2 µM (inactive).

For `Cc1ccc(CS(=O)(=O)c2ncc(Cl)c(C(=O)Nc3ccc(OC(F)F)cc3)n2)cc1`, the half-maximal activity concentration (AC50) was 61.5 µM (active) in [5], 13.5 µM (active) in [12] and 2.34 µM (active) in assay [15]. For the same compound, the 50% effective concentration (EC50) in assay [6] is 22.1 µM (active); in assay [7], 8.23 µM (active); in assay [8], > 40 µM (inactive); in assay [9], > 120 µM (not active); in [10], 2.07 µM (active); in assay [13] it was 18.1 µM (active). For the same compound, the EC50 in [14] is 12.7 µM (active). In assay [11], the IC50 is 11.3 µM (active).

With `Oc1cc(SCc2ccccc2)ncn1`, the IC50 in assay [16] was 0.514 µM (active).

Consider `Cc1ccccc1CN1Cc2cnnn2-c2ccccc2C1C#N` (configuration not stated), for which the AC50 was 13.8 µM (active) in assay [17]; 20.9 µM (active) in [18]; 17 µM (active) in assay [19]; 8.97 µM (active) in assay [20]; 15.8 µM (active) in assay [23]. Moreover, the IC50 in assay [21] is > 64.5 µM (inactive); in assay [22], 7.25 µM (active).

Turning to `CCN(/N=C/C=C/c1ccccc1)c1cc(=O)n(C)c(=O)[nH]1`, the IC50 was 155 µM (inactive) in assay [24] and 13.1 µM (not active) in assay [26]. Further, the EC50 in assay [25] was > 260 µM (inactive).

With `Sc1nnc(C2CCCCC2)n1/N=C/c1ccccc1Cl`, the IC50 in assay [24] was 155 µM (inactive).

For orientation: EC50 means the concentration that produces a half-maximal response. The IC50 is the concentration needed to halve the response being measured. By AC50 is commonly meant the midpoint of the concentration-response curve, whichever way the signal moves.
